Assay results: ChEMBL document CHEMBL3886950, “Furanone compounds as kinase inhibitors” (2016)

molecular target: Serine/threonine-protein kinase B-raf (Homo sapiens, UniProt P15056, V600E); assay: LanthaScreen Kinase Assay: The BRAFV600E enzymatic assay was performed using a LanthaScreen kinase assay kit purchased from Life Technologies (Grand Island, N.Y.). The assay was conducted according to the procedure provided in the assay kit. […] The final reaction volume for each reaction was 10 ul. The reaction was stopped by addition of 10 ul of TR-FRET dilution buffer kinase supplemented with kinase quench buffer (10 mM final) and Tb-anti-pMAP2K1 (2 nM final). The plate was further incubated at room temperature for another 60 minutes, and the fluorescent signals were read on Victor 5 (Perkin Elmer) with excitation at 340 nm and emission at 495 and 520 nM. The assay signal was determined as a ratio of FRET-specific signal measured with emission filter at 520 nM to that of the signal measured with Tb-specific emission filter at 495 nM. IC50 value was calculated using appropriate programs in GraphPad Prism by plotting the logarithm of the concentration versus percent inhibition.
Sequence (P15056 2-766 V600E limits assumed): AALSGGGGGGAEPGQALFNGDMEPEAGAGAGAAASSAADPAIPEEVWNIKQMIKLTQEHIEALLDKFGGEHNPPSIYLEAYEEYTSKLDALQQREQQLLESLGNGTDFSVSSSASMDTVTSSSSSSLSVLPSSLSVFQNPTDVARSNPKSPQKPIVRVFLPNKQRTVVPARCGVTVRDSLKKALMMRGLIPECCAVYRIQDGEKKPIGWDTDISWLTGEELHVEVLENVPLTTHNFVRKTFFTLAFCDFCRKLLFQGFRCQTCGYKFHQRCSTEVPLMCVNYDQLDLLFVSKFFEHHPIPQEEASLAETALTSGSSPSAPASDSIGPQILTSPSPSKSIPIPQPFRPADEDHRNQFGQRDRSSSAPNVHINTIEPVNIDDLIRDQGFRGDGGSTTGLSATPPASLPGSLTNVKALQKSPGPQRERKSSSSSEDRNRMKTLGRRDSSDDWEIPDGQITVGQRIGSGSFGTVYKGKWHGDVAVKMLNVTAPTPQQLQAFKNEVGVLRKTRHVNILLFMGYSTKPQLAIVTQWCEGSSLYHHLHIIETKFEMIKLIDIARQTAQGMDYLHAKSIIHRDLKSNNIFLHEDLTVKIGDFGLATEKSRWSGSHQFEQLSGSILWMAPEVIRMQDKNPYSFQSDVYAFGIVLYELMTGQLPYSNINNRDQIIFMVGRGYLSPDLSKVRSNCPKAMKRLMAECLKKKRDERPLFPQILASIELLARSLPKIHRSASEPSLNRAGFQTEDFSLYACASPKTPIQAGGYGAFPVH

Row | Compound | IC50 [nM]
1 | Nc1nccc(C2=C(c3cccc(NS(=O)(=O)c4c(F)cccc4F)c3F)C(=O)C3(CCCC3)O2)n1 | 29
2 | CC1(C)OC(c2ccnc(N)n2)=C(c2cc(Cl)cc(NS(=O)(=O)c3ccc(F)cc3F)c2F)C1=O | 10
3 | CC1(C)OC(c2ccnc(N)n2)=C(c2cc(Cl)cc(NS(=O)(=O)c3c(F)cccc3F)c2F)C1=O | 5.5
